# Publication PMC9166766 (Experimental & Molecular Medicine, 2022)
# No end group written: not given here.
# Key:
# [1] = system: NFATC2 dephosphorylation; assay: NFAT mobility shifting assay in Jurkat T cells; format: cell-based; conditions: HA-mCherry-tagged peptides, PMA and ionomycin 2 h, n = 7
# Description: Jurkat T cells expressing GST-tagged peptides were treated with PMA and ionomycin for activation. […] For dephosphorylation of NFATC2, Jurkat T cells were treated with PMA and ionomycin for 2 h. c Hyper- and hypophosphorylated NFATC2 of b was measured using ImageJ, and the hypo/hyper ratio was calculated (n = 7). d Snapshot images of the activated Jurkat T cells expressing the indicated peptides and tNFATC2 were obtained using confocal microscopy. The expression and localization of peptides and tNFATC2 are shown as mCherry (red) and EGFP (green), respectively. Nuclei were stained with Hoechst (blue). Scale bar, 50 μm e Nuclear-localized tNFATC2 was measured by calculating the colocalization ratio between Hoechst (M1) and EGFP (M2). […] Statistical differences were determined using a two-tailed Student’s t-test (a, c) or one-way ANOVA (e). ***p < 0.001, NC negative control.
# [2] = system: Jurkat T cells (PMA and ionomycin-induced gene expression); assay: mRNA sequencing of activated Jurkat T cells; format: cell-based, human
# Description: We then extracted RNA from these cells. Construction of the cDNA library and next-generation sequencing was performed at LAS (Gimpo, Korea). We sequenced all samples on an Illumina NextSeq 500 system with 75 paired-end reads. For the RNA sequencing analysis, reads for each sample were aligned to the human genome (GRCh37/hg19 genome assembly) using STAR 2.4.0.1[25] with default settings. We used HOMER tools to quantify and normalize the defined genes in RefSeq transcripts. FPKM normalized genes were hierarchically clustered using Cluster3.0[26]. We visualized refined data with Java Treeview (http://jtreeview.sourceforge.net). We conducted gene ontology analysis of each cluster using the DAVID web tool (https://david.ncifcrf.gov). Finally, we visualized the expression levels of target genes using the Integrative Genomics Viewer (http://software.broadinstitute.org/software/igv). The raw data were submitted to the NCBI Gene Expression Omnibus under accession number GSE185561.
# Fig. 3 The CABIN1 peptide inhibits T-cell activation. a Heatmap of altered genes affected by FK506 treatment or CABIN1 peptide expression upon T-cell activation. b Gene Ontology analysis of cluster III. c mRNA expression levels of genes included in cluster III. d qRT-PCR data of genes in c. The experiment was independently repeated at least three times, and the data are presented as the mean ± standard deviation. Statistical differences were determined using two-tailed Student’s t-test. *p < 0.05, **p < 0.01, ***p < 0.001, NC negative control.
substance,measurement,setting,value
"CABIN1-L-1-2: 10 amino acids from proline 2146 to proline 2155 of full-length CABIN1; expressed GST-, GAL4 DBD- or HA-mCherry-tagged (PEITVTPPTP; also: expressed GST-, GAL4 DBD- or HA-mCherry-tagged, end not given here)",NFATC2 dephosphorylation / band shift,[1],significantly inhibited the NFATC2 band shift
same,CD27 and CD70 expression,"[2]; Jurkat, PMA and ionomycin 8 h",repressed
same,"RNA levels of T-cell activation markers (IL2, IL3, NFATC1, CCL4, CCL20, CXCL8)","[2]; Jurkat, PMA and ionomycin 8 h",reduced the RNA levels
same,TM4SF1 expression,"[2]; P+I 8 h, NC 0, NC_P+I 3.268",0.907 FPKM
same,CD200 expression,"[2]; P+I 8 h, NC 0, NC_P+I 3.759",0.094 FPKM
same,ZP4 expression,"[2]; P+I 8 h, NC 0, NC_P+I 6.38",5.182 FPKM
same,CCL3L1 expression,"[2]; P+I 8 h, NC 0, NC_P+I 6.448",0.079 FPKM
same,CCL3L3 expression,"[2]; P+I 8 h, NC 0, NC_P+I 6.524",0.079 FPKM
same,CCL1 expression,"[2]; P+I 8 h, NC 0, NC_P+I 9.86",0.415 FPKM
same,NR4A2 expression,"[2]; P+I 8 h, NC 0, NC_P+I 10.173",0.356 FPKM
same,CCL4L2 expression,"[2]; P+I 8 h, NC 0, NC_P+I 12.758",0.328 FPKM
same,CCL4L1 expression,"[2]; P+I 8 h, NC 0, NC_P+I 13.27",0.328 FPKM
same,CSF2 expression,"[2]; P+I 8 h, NC 0, NC_P+I 23.497",0.314 FPKM
same,XCL1 expression,"[2]; P+I 8 h, NC 0, NC_P+I 49.113",1.144 FPKM
same,CCL3 expression,"[2]; P+I 8 h, NC 0, NC_P+I 52.239",0.502 FPKM
same,CCL20 expression,"[2]; P+I 8 h, NC 0, NC_P+I 59.393",1.279 FPKM
same,IL3 expression,"[2]; P+I 8 h, NC 0, NC_P+I 229.054",6.298 FPKM
same,CCL4 expression,"[2]; P+I 8 h, NC 0, NC_P+I 247.287",4.062 FPKM
same,IL2 expression,"[2]; P+I 8 h, NC 0, NC_P+I 397.807",12.964 FPKM
same,C3 expression,"[2]; P+I 8 h, NC 0.006, NC_P+I 3.907",1.329 FPKM
same,TNS3 expression,"[2]; P+I 8 h, NC 0.008, NC_P+I 13.196",1.418 FPKM
same,PLS3 expression,"[2]; P+I 8 h, NC 0.019, NC_P+I 4.717",0.37 FPKM
same,CREB5 expression,"[2]; P+I 8 h, NC 0.031, NC_P+I 4.533",1.966 FPKM
same,IRF4 expression,"[2]; P+I 8 h, NC 0.034, NC_P+I 8.439",2.092 FPKM
same,CXCL8 expression,"[2]; P+I 8 h, NC 0.037, NC_P+I 26.755",3.327 FPKM
same,SLAMF1 expression,"[2]; P+I 8 h, NC 0.042, NC_P+I 5.663",0.275 FPKM
same,TNFSF14 expression,"[2]; P+I 8 h, NC 0.045, NC_P+I 69.958",4.255 FPKM
same,IL21R-AS1 expression,"[2]; P+I 8 h, NC 0.048, NC_P+I 23.616",3.991 FPKM
same,XCL2 expression,"[2]; P+I 8 h, NC 0.056, NC_P+I 70.747",2.074 FPKM
same,LIF expression,"[2]; P+I 8 h, NC 0.063, NC_P+I 3.697",0.231 FPKM
same,SHC4 expression,"[2]; P+I 8 h, NC 0.069, NC_P+I 4.391",0.686 FPKM
same,RGS16 expression,"[2]; P+I 8 h, NC 0.077, NC_P+I 29.102",5.595 FPKM
same,IL21R expression,"[2]; P+I 8 h, NC 0.1, NC_P+I 34.712",5.255 FPKM
same,CRTAM expression,"[2]; P+I 8 h, NC 0.104, NC_P+I 100.175",9.51 FPKM
same,ZNF704 expression,"[2]; P+I 8 h, NC 0.107, NC_P+I 4.985",0.183 FPKM
same,NTRK1 expression,"[2]; P+I 8 h, NC 0.167, NC_P+I 7.941",1.657 FPKM
same,PHEX expression,"[2]; P+I 8 h, NC 0.188, NC_P+I 17.377",0.786 FPKM
same,SORBS1 expression,"[2]; P+I 8 h, NC 0.196, NC_P+I 5.08",0.511 FPKM
same,TIAM2 expression,"[2]; P+I 8 h, NC 0.255, NC_P+I 4.095",0.301 FPKM
same,CRIM1 expression,"[2]; P+I 8 h, NC 0.268, NC_P+I 3.029",0.333 FPKM
same,SERPINB2 expression,"[2]; P+I 8 h, NC 0.28, NC_P+I 85.882",14.103 FPKM
same,CCND2 expression,"[2]; P+I 8 h, NC 0.321, NC_P+I 6.436",0.99 FPKM
same,CXCR3 expression,"[2]; P+I 8 h, NC 0.604, NC_P+I 14.322",1.803 FPKM
same,ISM1 expression,"[2]; P+I 8 h, NC 0.798, NC_P+I 56.893",3.737 FPKM
same,C10orf54 expression,"[2]; P+I 8 h, NC 0.84, NC_P+I 7.506",0.487 FPKM
same,CSF1 expression,"[2]; P+I 8 h, NC 0.848, NC_P+I 13.43",2.594 FPKM
same,SLC35E4 expression,"[2]; P+I 8 h, NC 0.887, NC_P+I 9.069",1.517 FPKM
same,ZNF827 expression,"[2]; P+I 8 h, NC 0.975, NC_P+I 3.401",1.372 FPKM
same,CD70 expression,"[2]; P+I 8 h, NC 1.101, NC_P+I 61.146",7.606 FPKM
same,PAM expression,"[2]; P+I 8 h, NC 1.154, NC_P+I 5.577",1.934 FPKM
same,FOXO1 expression,"[2]; P+I 8 h, NC 1.167, NC_P+I 8.247",3.736 FPKM
same,IRF8 expression,"[2]; P+I 8 h, NC 1.168, NC_P+I 14.813",1.914 FPKM
same,SCHIP1 expression,"[2]; P+I 8 h, NC 1.25, NC_P+I 3.933",1.333 FPKM
same,FOSL2 expression,"[2]; P+I 8 h, NC 1.294, NC_P+I 7.508",2.362 FPKM
same,TNFSF9 expression,"[2]; P+I 8 h, NC 1.393, NC_P+I 7.107",2.651 FPKM
same,IQCJ-SCHIP1 expression,"[2]; P+I 8 h, NC 1.402, NC_P+I 4.253",1.234 FPKM
same,STAT5A expression,"[2]; P+I 8 h, NC 1.417, NC_P+I 9.105",3.055 FPKM
same,TDRD9 expression,"[2]; P+I 8 h, NC 1.428, NC_P+I 25.902",1.888 FPKM
